According to patent US20210317140A1, “Heterocyclic Compounds and Methods of Use” (MEDIVATION TECHNOLOGIES, INC, priority 2013, published 2021):

Tests used:
[1] = molecular target: T1, PI3Kδ (Homo sapiens, UniProt O00329); experiment: PI3Kδ kinase assay (HTRF, PIP3 detection); assay type: biochemical; conditions: for PI3Kδ @ 0.01 μM (% Inh): 0.01 μM compound; for PI3Kδ @ 0.01 μM (% Inh) / PI3Kδ @ 0.1 μM (% Inh): 10 μM ATP; for PI3Kδ @ 0.1 μM (% Inh): 0.1 μM compound; for IC50: 10 dose IC50, 10 μM ATP
T1 construct: purchased Reaction Biology Corporation
T1 sequence (O00329 whole entry): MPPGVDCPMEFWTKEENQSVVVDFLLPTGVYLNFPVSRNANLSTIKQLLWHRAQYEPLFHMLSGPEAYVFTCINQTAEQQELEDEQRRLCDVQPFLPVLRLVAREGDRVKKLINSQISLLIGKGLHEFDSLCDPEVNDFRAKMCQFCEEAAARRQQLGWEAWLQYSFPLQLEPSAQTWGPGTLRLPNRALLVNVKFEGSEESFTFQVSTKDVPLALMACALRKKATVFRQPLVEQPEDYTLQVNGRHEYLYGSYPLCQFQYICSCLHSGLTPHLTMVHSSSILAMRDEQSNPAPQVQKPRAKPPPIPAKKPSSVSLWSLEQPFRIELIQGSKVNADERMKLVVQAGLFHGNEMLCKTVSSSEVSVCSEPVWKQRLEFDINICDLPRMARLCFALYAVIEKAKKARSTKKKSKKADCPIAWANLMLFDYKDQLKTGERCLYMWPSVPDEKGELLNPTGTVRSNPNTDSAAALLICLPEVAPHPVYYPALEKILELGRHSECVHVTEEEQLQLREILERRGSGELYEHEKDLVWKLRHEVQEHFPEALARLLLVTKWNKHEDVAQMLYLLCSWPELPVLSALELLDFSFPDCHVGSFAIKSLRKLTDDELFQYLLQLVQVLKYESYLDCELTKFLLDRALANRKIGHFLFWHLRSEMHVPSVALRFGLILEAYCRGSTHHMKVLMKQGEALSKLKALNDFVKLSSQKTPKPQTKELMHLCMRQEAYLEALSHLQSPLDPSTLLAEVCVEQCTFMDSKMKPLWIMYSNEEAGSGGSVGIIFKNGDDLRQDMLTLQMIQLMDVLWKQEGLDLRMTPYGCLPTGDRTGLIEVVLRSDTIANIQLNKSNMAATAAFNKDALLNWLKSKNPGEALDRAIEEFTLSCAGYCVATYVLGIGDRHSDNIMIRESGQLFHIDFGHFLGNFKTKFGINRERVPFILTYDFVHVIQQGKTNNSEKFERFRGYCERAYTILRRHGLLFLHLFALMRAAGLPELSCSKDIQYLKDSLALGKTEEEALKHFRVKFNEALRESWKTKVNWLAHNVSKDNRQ
T1 sequence (P27986 whole entry partner): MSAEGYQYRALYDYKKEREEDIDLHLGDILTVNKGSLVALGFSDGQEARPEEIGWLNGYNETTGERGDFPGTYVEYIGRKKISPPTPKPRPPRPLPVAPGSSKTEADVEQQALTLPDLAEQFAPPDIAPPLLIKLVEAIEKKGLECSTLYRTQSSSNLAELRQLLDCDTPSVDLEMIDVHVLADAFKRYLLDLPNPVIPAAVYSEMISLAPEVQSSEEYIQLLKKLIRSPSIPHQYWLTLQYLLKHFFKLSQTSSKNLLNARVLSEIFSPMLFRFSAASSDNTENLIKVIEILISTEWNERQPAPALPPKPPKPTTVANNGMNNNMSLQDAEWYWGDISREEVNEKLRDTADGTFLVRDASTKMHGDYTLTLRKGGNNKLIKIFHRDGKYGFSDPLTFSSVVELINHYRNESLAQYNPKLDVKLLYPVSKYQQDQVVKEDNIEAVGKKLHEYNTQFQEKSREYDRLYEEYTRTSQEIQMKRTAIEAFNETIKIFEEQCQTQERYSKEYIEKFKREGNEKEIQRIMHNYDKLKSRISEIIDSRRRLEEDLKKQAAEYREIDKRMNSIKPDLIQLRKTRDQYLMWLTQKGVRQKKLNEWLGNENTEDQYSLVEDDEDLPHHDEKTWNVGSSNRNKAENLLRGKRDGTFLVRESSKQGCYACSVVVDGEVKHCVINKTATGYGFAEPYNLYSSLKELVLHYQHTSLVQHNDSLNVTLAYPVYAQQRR
Method in brief: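 10-dose HTRF assay; kinase preincubated with compound 10 min at RT, then reacted with 10 μM PIP2 and 10 μM ATP for 30 min at 30 °C in HEPES pH 7.0 buffer. PIP3 product displaces biotin-PIP3 from the Eu/APC complex; signal converted to PIP3 via standard curve, IC50 by nonlinear regression.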

[2] = tested on: CD69+B220+ cells; experiment: B cell activation assay (IgD-stimulated splenocytes, CD69+B220+ cells by FACS); assay type: cell-based; conditions: mouse splenocytes, IgD 3 μg/mL, 4 h; for CD69 @ 100 nM (% Inh): 100 nM compound
Method: 1 Female mouse approximately 2 months old was euthanized with CO2 and the spleen removed. The tissue was homogenized with a polished glass microscope slide. The cells were collected in 5 mL complete medium (RPMI+10% FBS+pen/strep), placed in a 15 mL falcon tube and centrifuged at 500×g for 5 min. The supernatant was discarded and the pellet was resuspended in 3 mL of ACK lysis buffer (NH4Cl 0.17M, KHCO3 10 mM, EDTA-Na2 0.1 mM, pH 7.2), incubated at 37° C. for 5 min. 2 mL complete medium was added and the mixture centrifuged at 500×g for 5 min. The supernatant was discarded and the pellet resuspended in 1 mL complete medium. The mixture was passed through a […] cell strainer and collect in 50 mL falcon tube. Enough medium was added to have a total of 10 mL. The cells were counted and seeded in 24 or 48-well plate in 1 mL complete medium at 10^6 cells/mL. The plate was placed in a 37° C. incubator for 15 min. The cells were treated for 30 min at 37° C. with 100 nM test compound dissolved in 100% DMSO. 3 μL IgD (Accurate chemical and scientific corp.) was added at a final concentration of 3 μg/mL and the mixture incubated at 37° C. for 4 h. The cells were collected in 1.5 mL eppendorf tubes, centrifuged at 500×g for 5 min and then resuspended in 100 μL of PBS+2% FBS. The following antibodies were added: α-B220 PE (pharmingen #553090), α-CD69 APC (pharmingen #60689), live/dead fixable aqua dead cell stain kit (life technologies #L34957) all at 1:300, and the mixture incubated for 15 min at 4° C. in the dark. To this was added 900 μL of PBS+2% FBS and the mixture centrifuged at 500×g for 5 min. The supernatant was removed and the pellet resuspended in 300 μL of PBS+2% FBS and mixed well. The mixture was transferred to a cytometer tube. The samples were run in the FACS Canto II cytometer and quantified by the number of CD69+B220+ cells as a percentage of the total number of B220+ alive cells.

[3] = molecular target: T2, BTK (Homo sapiens, UniProt Q06187); experiment: BTK kinase assay (HotSpot, 33P ATP); assay type: biochemical; conditions: for BTK @ 0.01 μM (% Inh): 0.01 μM compound; for BTK @ 0.01 μM (% Inh) / BTK @ 0.1 μM (% Inh): 10 μM ATP; for BTK @ 0.1 μM (% Inh): 0.1 μM compound
T2 construct: purchased Reaction Biology Corporation
T2 sequence (Q06187 whole entry): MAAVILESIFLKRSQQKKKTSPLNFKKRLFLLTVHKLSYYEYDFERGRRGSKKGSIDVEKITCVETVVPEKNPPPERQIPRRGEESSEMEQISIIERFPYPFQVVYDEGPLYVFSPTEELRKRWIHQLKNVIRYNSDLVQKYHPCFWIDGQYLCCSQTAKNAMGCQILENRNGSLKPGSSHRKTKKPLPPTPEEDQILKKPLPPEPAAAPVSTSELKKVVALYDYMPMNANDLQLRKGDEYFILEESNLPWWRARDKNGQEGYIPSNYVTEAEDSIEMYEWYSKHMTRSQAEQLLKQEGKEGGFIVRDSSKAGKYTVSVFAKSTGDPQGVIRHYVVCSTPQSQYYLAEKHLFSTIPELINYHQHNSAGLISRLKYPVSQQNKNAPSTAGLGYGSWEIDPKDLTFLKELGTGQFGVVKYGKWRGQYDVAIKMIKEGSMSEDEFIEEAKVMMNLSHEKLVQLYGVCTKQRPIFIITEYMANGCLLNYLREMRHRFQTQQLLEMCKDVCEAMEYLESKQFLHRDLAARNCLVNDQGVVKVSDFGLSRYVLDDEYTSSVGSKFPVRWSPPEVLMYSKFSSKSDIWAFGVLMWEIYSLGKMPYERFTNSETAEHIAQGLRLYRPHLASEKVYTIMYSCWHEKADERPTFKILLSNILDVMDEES
Method in brief: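 In 20 mM Hepes (pH 7.5) with 10 mM MgCl2, 1 mM EGTA, 0.1 mM Na3VO4, 2 mM DTT, 0.02% Brij35, 0.02 mg/mL BSA and 1% DMSO, kinase and substrate were exposed to ten compound doses for 15–20 min.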

Row | SMILES | PI3Kδ @ 0.01 μM (% Inh) [1] [% Inh] | PI3Kδ @ 0.1 μM (% Inh) [1] [% Inh] | BTK @ 0.01 μM (% Inh) [3] [% Inh] | BTK @ 0.1 μM (% Inh) [3] [% Inh] | IC50 [1] [nM] | IC50 ([3]; 10 dose IC50, 10 μM ATP) [nM] | IC50 ([2]; Splenocyte) [nM] | CD69 @ 100 nM (% Inh) [2]
1 | Nc1ncnc2c1c(-c1cc(F)c3c(c1)NCCO3)nn2C1Cc2ccc(F)cc2C1 (stereo not shown) [compound 121, 1-(5-fluoro-2,3-dihydro-1H-inden-2-yl)-3-(8-fluoro-3,4-dihydro-2H-1,4-benzoxazin-6-yl)-1H-pyrazolo[3,4-d]pyrimidin-4-amine] | 1.09 | 25.95 | 90.34 | 6.55 |  |  |  | −82.03 ± 14.71 (n = 3) % Inh
2 | Nc1cc(-c2nn(C3CCc4ccccc4C3)c3ncnc(N)c23)cc(F)c1F (stereo not shown) [compound 122, 3-(3-amino-4,5-difluorophenyl)-1-(1,2,3,4-tetrahydronaphthalen-2-yl)-1H-pyrazolo[3,4-d]pyrimidin-4-amine] | −3.68 | 25.32 | 12.72 | 53.15 |  |  |  | 2.58 ± 4.93 (n = 3) % Inh
3 | Nc1ncnc2c1c(-c1cc(O)c(F)c(C(F)(F)F)c1)nn2C1CCc2ccccc2C1 (stereo not shown) [compound 123, 5-[4-amino-1-(1,2,3,4-tetrahydronaphthalen-2-yl)-1H-pyrazolo[3,4-d]pyrimidin-3-yl]-2-fluoro-3-(trifluoromethyl)phenol] | 59.11 | 88.87 | 1.82 | −0.78 |  |  |  | 29.22 ± 4.64 (n = 3) % Inh
4 | Nc1ncnn2c(C3Cc4ccccc4C3)cc(-c3cc(O)c(F)c(F)c3)c12 [compound 125, 5-[4-amino-7-(2,3-dihydro-1H-inden-2-yl)pyrrolo[2,1-f][1,2,4]triazin-5-yl]-2,3-difluorophenol] | 22.51 | 62.27 | 39.05 | 80.31 | 32.8 | 14.2 |  | 2.68 ± 2.32 (n = 3) % Inh
5 | N#Cc1cc(-c2nn(C3CCc4ccccc4C3)c3ncnc(N)c23)cc(O)c1F (stereo not shown) [compound 130, 5-[4-amino-1-(1,2,3,4-tetrahydronaphthalen-2-yl)-1H-pyrazolo[3,4-d]pyrimidin-3-yl]-2-fluoro-3-hydroxybenzonitrile] | 53.08 | 90.11 | −1.03 | −0.64 | 0.269 |  | 104.5 ± 0.7 | 67.53 ± 15.54 (n = 3) % Inh
6 | NC(=O)c1cc(-c2nn(C3CCc4ccccc4C3)c3ncnc(N)c23)cc(O)c1F (stereo not shown) [compound 131, 5-[4-amino-1-(1,2,3,4-tetrahydronaphthalen-2-yl)-1H-pyrazolo[3,4-d]pyrimidin-3-yl]-2-fluoro-3-hydroxybenzamide] | 13.11 | 53.68 | −2.45 | 0.17 |  |  |  | 15.73 ± 14.11 (n = 3) % Inh
7 | NC(=O)c1cc(-c2nn(C3Cc4ccccc4C3)c3ncnc(N)c23)cc(O)c1F [compound 132, 5-[4-amino-1-(2,3-dihydro-1H-inden-2-yl)-1H-pyrazolo[3,4-d]pyrimidin-3-yl]-2-fluoro-3-hydroxybenzamide] | 13.73 | 56.84 | 0.44 | 5.3 |  |  |  | 27.67 ± 13.46 (n = 3) % Inh

More lines, main results first:

Row | PI3Kδ @ 0.01 μM (% Inh) [1] [% Inh] | PI3Kδ @ 0.1 μM (% Inh) [1] [% Inh] | BTK @ 0.01 μM (% Inh) [3] [% Inh] | BTK @ 0.1 μM (% Inh) [3] [% Inh] | IC50 [1] [nM] | IC50 ([3]; 10 dose IC50, 10 μM ATP) [nM] | IC50 ([2]; Splenocyte) [nM] | SMILES | CD69 @ 100 nM (% Inh) [2]
8 | 8.34 | 52.39 | 4.47 | 34.18 |  |  |  | Nc1ncnc2c1c(-c1cc(F)c3c(c1)NCCO3)nn2C1CCc2ccccc2C1 (stereo not shown) [compound 124, 3-(8-fluoro-3,4-dihydro-2H-1,4-benzoxazin-6-yl)-1-(1,2,3,4-tetrahydronaphthalen-2-yl)-1H-pyrazolo[3,4-d]pyrimidin-4-amine] | 14.44 ± 2.64 (n = 3) % Inh
9 | 4.71 | 2.3 | 8.16 | 8.18 |  |  |  | Nc1ncnc2c1c(-c1cc(O)c(F)c(F)c1)nn2C1CCc2ncccc21 (stereo not shown) [compound 126, 5-(4-amino-1-{5H,6H,7H-cyclopenta[b]pyridin-5-yl}-1H-pyrazolo[3,4-d]pyrimidin-3-yl)-2,3-difluorophenol] | 12.35 ± 7.52 (n = 3) % Inh
10 | 56.4 | 91.22 | 19.98 | 63.94 |  |  |  | Nc1ncnc2c1c(-c1cc(O)c(F)c(F)c1)nn2C1Cc2ccc(F)cc2C1 (stereo not shown) [compound 128, 5-[4-amino-1-(5-fluoro-2,3-dihydro-1H-inden-2-yl)-1H-pyrazolo[3,4-d]pyrimidin-3-yl]-2,3-difluorophenol] | 49.29 ± 5.74 (n = 3) % Inh
11 | 8.3 | 19.42 | 6.57 | 18.99 |  |  |  | Nc1ncnc2c1c(-c1cc(F)c3c(c1)NC(=O)CO3)nn2C1Cc2ccccc2C1 [compound 129, 6-[4-amino-1-(2,3-dihydro-1H-inden-2-yl)-1H-pyrazolo[3,4-d]pyrimidin-3-yl]-8-fluoro-3,4-dihydro-2H-1,4-benzoxazin-3-one] | 12.5 ± 13.16 (n = 3) % Inh
12 | −1.05 | 1.17 | −0.81 | −0.94 |  |  |  | NCc1cccc(-c2nn(C3Cc4ccccc4C3)c3ncnc(N)c23)c1 [compound 133, 3-[3-(aminomethyl)phenyl]-1-(2,3-dihydro-1H-inden-2-yl)-1H-pyrazolo[3,4-d]pyrimidin-4-amine] | 6.8 ± 14.52 (n = 3) % Inh
